This is an account of results in ChEMBL document CHEMBL1201862, “PubChem BioAssay data set” (2004).

Each structure is given as a SMILES string.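 Where inhibition never reached the appropriate level, the endpoint shown equals the highest concentration tested. Otherwise, values were interpolated linearly from a five-concentration, 48-hour dose response in 96-well plates. The concentration for 50% growth inhibition is given as GI50.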 Active and inactive are the calls of the source. Rule as the data show it: active = GI50 up to about 1.1 µM and inactive = higher.

Test systems include 786-0; A498; COLO 205; HCT-116; HT-29; Hs-578T; LOX IMVI; MDA-MB-231; NCI-H460; OVCAR-4; OVCAR-5; SF-295; SK-MEL-28; SN12C; SW-620; UACC-257; UO-31; HOP-62; RPMI-8226; SNB-75.
Experiment in all cases: growth of human tumour cells (NCI), 48 h

In the case of `N#CC(N)c1ccc(OCCCCCCCCCCOc2ccc(C(N)C#N)cc2)cc1` (stereo not drawn), the GI50 in the experiment with 786-0 was > 100 µM (inactive); with A498 it was > 100 µM (inactive); with COLO 205, > 100 µM (inactive); in the experiment with HCT-116, 80 µM (inactive); in the experiment with HT-29, > 100 µM (inactive); in the experiment on Hs-578T, > 100 µM (inactive). Also, the GI50 with LOX IMVI, in the experiment with MDA-MB-231, with NCI-H460, in the experiment on OVCAR-4, in the experiment with OVCAR-5 and with SF-295 was > 100 µM (inactive) each time. In addition, the GI50 in the experiment on SK-MEL-28, in the experiment on SN12C, in the experiment on SW-620, in the experiment with UACC-257 and with UO-31 was > 100 µM (inactive) throughout.
For the compound `CC(C)[N+]([O-])(CCCNc1c2ccccc2nc2cccc([N+](=O)[O-])c12)C(C)C`, the GI50 in the experiment with 786-0 was 0.0467 µM (active); in the experiment with A498 it was < 0.0452 µM (active); in the experiment on COLO 205, < 0.019 µM (active); in the experiment with HCT-116, < 0.0204 µM (active); in the experiment with HOP-62 it was 0.0525 µM (active); in the experiment with HT-29 it was < 0.0202 µM (active). For the same compound, the GI50 was < 0.0481 µM (active) in the experiment with Hs-578T; 0.0619 µM (active) in the experiment with LOX IMVI; < 0.01 µM (active) in the experiment with MDA-MB-231; 0.06 µM (active) with NCI-H460; 0.153 µM (active) with OVCAR-4; < 0.0395 µM (active) in the experiment with OVCAR-5. The GI50 is < 0.0179 µM (active) with RPMI-8226; < 0.0412 µM (active) with SF-295; < 0.01 µM (active) in the experiment with SK-MEL-28; 0.0551 µM (active) with SN12C; < 0.0258 µM (active) in the experiment on SW-620; 0.064 µM (active) with UACC-257.
For `N#Cc1c(-c2ccccc2)[nH]c2ccc(Cl)cc2c1=O`, the GI50 is 30.5 µM (inactive) with 786-0; > 100 µM (inactive) with COLO 205; 81.8 µM (inactive) with HCT-116; 25.8 µM (inactive) in the experiment on HOP-62; > 100 µM (inactive) in the experiment on HT-29; 34.8 µM (inactive) in the experiment with Hs-578T. The GI50 in the experiment on LOX IMVI is > 100 µM (inactive); in the experiment on MDA-MB-231, 21.7 µM (inactive); in the experiment on NCI-H460, > 100 µM (inactive); in the experiment with OVCAR-4 it was > 100 µM (inactive); in the experiment with OVCAR-5 it was > 100 µM (inactive); in the experiment on RPMI-8226, > 100 µM (inactive). In addition, the GI50 was 22.4 µM (inactive) in the experiment on SF-295; > 100 µM (inactive) with SK-MEL-28; > 100 µM (inactive) with SN12C; 44.7 µM (inactive) with SNB-75; > 100 µM (inactive) in the experiment on SW-620; > 100 µM (inactive) in the experiment with UACC-257. Moreover, in the experiment on UO-31, the GI50 is 22.4 µM (inactive).
On to `COc1c(-c2nc3ccc(N4CCN(C)CC4)nc3[nH]2)cc(OC)c2c1nc(CO)n2C`, for which the GI50 was > 100 µM (inactive) in the experiment on 786-0; 75.7 µM (inactive) with COLO 205; > 100 µM (inactive) in the experiment with HCT-116; > 100 µM (inactive) in the experiment with HOP-62; > 100 µM (inactive) in the experiment with HT-29; > 100 µM (inactive) in the experiment on Hs-578T. The GI50 with LOX IMVI, in the experiment on MDA-MB-231, in the experiment with NCI-H460, in the experiment on OVCAR-4, in the experiment on OVCAR-5 and in the experiment with RPMI-8226 was > 100 µM (inactive) each time. Also, the GI50 with SF-295 is > 100 µM (inactive); with SK-MEL-28, > 100 µM (inactive); in the experiment on SN12C it was > 100 µM (inactive); with SNB-75 it was 31.1 µM (inactive); with SW-620 it was > 100 µM (inactive); with UACC-257, > 100 µM (inactive). In the experiment on UO-31, the GI50 is > 100 µM (inactive).
